Numbers after ± are expanded uncertainties. Each block holds one compound with its values, some of them ahead of it.
What was measured:
[1] = Boiling temperature at pressure P; settings: 1.1 kPa, Liquid
[2] = Liquid, Rate of evaporation

SMILES: Cc1cc(O)c(C)c2c1O[C@](C)(CCC[C@H](C)CCC[C@H](C)CCCC(C)C)CC2 [(R,R,R)-β-tocopherol]
Boiling temperature at pressure P ([1]; DSC): 279.58 ± 2.9 °C

SMILES: Cc1c(C)c2c(c(C)c1O)CC[C@@](C)(CCC[C@H](C)CCC[C@H](C)CCCC(C)C)O2 [(+)-α-tocopherol]
Boiling temperature at pressure P ([1]; Rate of evaporation): 276.11 ± 8.4 °C

SMILES: CCCCCCCCCC(=O)OCC(O)CO (stereo not drawn) [2,3-dihydroxypropyl decanoate]
vapor or sublimation pressure ([2]; 478.69 K): 1.1 ± 0.2 kPa
vapor or sublimation pressure ([2]; 482.79 K): 1.5 ± 0.2 kPa
vapor or sublimation pressure ([2]; 491.77 K): 2.5 ± 0.3 kPa
vapor or sublimation pressure ([2]; 497.13 K): 3.1 ± 0.6 kPa
vapor or sublimation pressure ([2]; 498.31 K): 3.6 ± 0.4 kPa
vapor or sublimation pressure ([2]; 501.31 K): 4.3 ± 0.4 kPa
vapor or sublimation pressure ([2]; 511.21 K): 6.8 ± 0.7 kPa
vapor or sublimation pressure ([2]; 519.1 K): 10.1 ± 1 kPa
vapor or sublimation pressure ([2]; 524.41 K): 13.2 ± 1.2 kPa

SMILES: CCCCCCCCCC(=O)OCC(O)COC(=O)CCCCCCCCC [2-hydroxypropane-1,3-diyl bis(decanoate)]
vapor or sublimation pressure ([2]; 535.66 K): 1 ± 0.1 kPa
vapor or sublimation pressure ([2]; 538.32 K): 1.1 ± 0.2 kPa
vapor or sublimation pressure ([2]; 544.06 K): 1.5 ± 0.2 kPa
vapor or sublimation pressure ([2]; 554.25 K): 2.5 ± 0.2 kPa
vapor or sublimation pressure ([2]; 558.74 K): 3.1 ± 0.3 kPa
vapor or sublimation pressure ([2]; 562.37 K): 3.6 ± 0.4 kPa
vapor or sublimation pressure ([2]; 565.39 K): 4.3 ± 0.5 kPa

SMILES: CCCCCCCC(=O)OCC(O)CO (stereo not drawn) [2,3-dihydroxypropyl octanoate]
vapor or sublimation pressure ([2]; 462.66 K): 1.1 ± 0.1 kPa
vapor or sublimation pressure ([2]; 468.91 K): 1.5 ± 0.2 kPa
vapor or sublimation pressure ([2]; 479.02 K): 2.5 ± 0.2 kPa
vapor or sublimation pressure ([2]; 484.24 K): 3.1 ± 0.4 kPa
vapor or sublimation pressure ([2]; 485.63 K): 3.6 ± 0.3 kPa
vapor or sublimation pressure ([2]; 490.19 K): 4.3 ± 0.4 kPa
vapor or sublimation pressure ([2]; 498.91 K): 6.8 ± 0.6 kPa
vapor or sublimation pressure ([2]; 507.96 K): 10.1 ± 0.9 kPa
vapor or sublimation pressure ([2]; 514.64 K): 13.2 ± 1.2 kPa

The next lines start with the values.

Boiling temperature at pressure P ([1]; DSC): 279.5 ± 6.6 °C
SMILES: Cc1cc(O)cc2c1OC(C)(CCCC(C)CCCC(C)CCCC(C)C)CC2 (stereo not drawn) [ω-tocopherol]

Boiling temperature at pressure P ([1]; DSC): 274.70 ± 4.7 °C
SMILES: Cc1c(O)cc2c(c1C)O[C@](C)(CCC[C@H](C)CCC[C@H](C)CCCC(C)C)CC2 [(R,R,R)-γ-tocopherol]

vapor or sublimation pressure ([2]; 511.93 K): 1.1 ± 0.2 kPa
vapor or sublimation pressure ([2]; 517.23 K): 1.5 ± 0.2 kPa
vapor or sublimation pressure ([2]; 529.42 K): 2.5 ± 0.2 kPa
vapor or sublimation pressure ([2]; 533.36 K): 3.1 ± 0.3 kPa
vapor or sublimation pressure ([2]; 538.14 K): 3.6 ± 0.3 kPa
vapor or sublimation pressure ([2]; 541.18 K): 4.3 ± 0.4 kPa
vapor or sublimation pressure ([2]; 552.59 K): 6.8 ± 0.5 kPa
vapor or sublimation pressure ([2]; 560.35 K): 10.1 ± 0.9 kPa
vapor or sublimation pressure ([2]; 567.73 K): 13.2 ± 1.2 kPa
SMILES: CCCCCCCC(=O)OCC(O)COC(=O)CCCCCCC [glycerol 1,3-dicaprylate]
